Reference: EPA's ToxRefDB 2

Columns and labels:
[1] = tested on: dog; details: Subchronic oral toxicity in nonrodent, beagle, Water, dose end: 90 day, group: systemic, systemic / in life observation / clinical signs / vomitting
[2] = tested on: rat; details: Multigenerational reproductive toxicity study, sprague dawley, Oral, Water, dose end: 2 generation
[3] = tested on: rat; details: Prenatal developmental toxicity study, wistar, Oral, Gavage/Intubation, dose end: 15 GD
[4] = tested on: mouse; details: Chronic toxicity; b6c3f1; Inhalation; Whole-Body; dose end: 78 week; group: systemic; systemic / in life observation / body weight / body weight gain + systemic / pathology microscopic / nose / hyperplasia
[5] = tested on: rat; details: Multigenerational reproductive toxicity study, wistar, Oral, Water, dose end: 2 generation
[6] = tested on: rabbit; details: Prenatal developmental toxicity study, himalayan, Oral, Gavage/Intubation, dose end: 19 GD
[7] = tested on: rat; details: Combined chronic toxicity/carcinogenicity, fischer, Oral, Water, dose end: 104 week, group: systemic
[8] = tested on: rat; details: Subchronic inhalation toxicity, fischer, Whole-Body, dose end: 13 week, group: systemic
[9] = tested on: rat; details: Carcinogenicity, wistar, Oral, Water, dose end: 24 month, group: systemic
[10] = tested on: rat; details: Chronic toxicity, wistar, Oral, Water, dose end: 12 month, group: systemic
[11] = tested on: rat; details: Subchronic dermal toxicity, sprague dawley, Topical, dose end: 90 day, group: systemic, systemic / pathology gross / skin / scabbing + systemic / pathology microscopic / skin / acanthosis + systemic / pathology microscopic / …
[12] = tested on: mouse; details: Subchronic oral toxicity in rodents, cd1, Water, dose end: 90 day, group: systemic, systemic / pathology microscopic / stomach / inflammation + systemic / urinalysis / specific gravity/osmolality / specific gravity/…
[13] = tested on: mouse; details: Subchronic inhalation toxicity, b6c3f1, Whole-Body, dose end: 13 week
[14] = tested on: rat; details: Multigenerational reproductive toxicity study, sprague dawley, Oral, Water, dose end: 2 generation; remark: listed apart in the source
[15] = tested on: rat; details: Subchronic oral toxicity in rodents, fischer, Water, dose end: 3 month, group: systemic, systemic / clinical chemistry / alanine aminotransferase (alt/sgpt) / alanine aminotransferase (alt/sgpt) + systemic / clinical chemistry / …
[16] = tested on: mouse; details: Subchronic oral toxicity in rodents, b6c3f1, Water, dose end: 3 month, group: systemic
[17] = tested on: rat; details: Combined chronic toxicity/carcinogenicity, fischer, Oral, Water, dose end: 105 week, group: systemic
[18] = tested on: mouse; details: Combined chronic toxicity/carcinogenicity, b6c3f1, Oral, Water, dose end: 105 week, group: systemic
[19] = group: offspring, systemic / in life observation / body weight / offspring (pup) weight
[20] = group: parental, systemic / in life observation / food consumption / food consumption
[21] = group: parental, systemic / in life observation / food consumption / food consumption + systemic / pathology gross / lymph node / enlarged + systemic / …
[22] = group: developmental, systemic / in life observation / body weight / fetal weight
[23] = group: maternal, systemic / in life observation / body weight / body weight gain + systemic / in life observation / clinical signs / piloerection + systemic…
[24] = group: maternal, systemic / in life observation / clinical signs / piloerection
[25] = group: offspring, systemic / in life observation / body weight / litter weight + systemic / in life observation / body weight / offspring (pup) weight
[26] = group: parental, systemic / in life observation / body weight / body weight + systemic / in life observation / body weight / body weight gain + systemic / in…
[27] = group: parental, systemic / in life observation / water consumption / water consumption
[28] = group: maternal, systemic / in life observation / body weight / body weight + systemic / in life observation / body weight / body weight gain + systemic / in…
[29] = systemic / organ weight / kidney / relative to body weight + systemic / in life observation / clinical signs / urine staining - perineum + …
[30] = systemic / organ weight / kidney / relative to body weight + systemic / pathology gross / stomach / [other] + systemic / clinical chemistry…
[31] = systemic / pathology microscopic / nose / [other] + systemic / pathology microscopic / nose / hyperplasia + systemic / pathology microscopic…
[32] = systemic / in life observation / water consumption / water consumption
[33] = systemic / in life observation / body weight / body weight gain + systemic / pathology gross / stomach / erosion + systemic / pathology …
[34] = group: developmental, developmental / developmental malformation / penis / paraphimosis
[35] = group: maternal, reproductive / reproductive performance / estrous cycle / abnormal
[36] = group: systemic, systemic / pathology microscopic / nose / inflammation
[37] = group: systemic, systemic / pathology microscopic / nose / inflammation + systemic / in life observation / body weight / body weight gain
[38] = group: offspring, systemic / in life observation / body weight / offspring (pup) weight gain
[39] = systemic / hematology / erythrocyte (rbc) count differential / erythrocyte (rbc) + systemic / hematology / hemoglobin (hgb) / hemoglobin (…
[40] = systemic / hematology / mean corpuscular hemoglobin (mch) / mean corpuscular hemoglobin (mch) + systemic / pathology microscopic / intestine…
[41] = systemic / pathology microscopic / liver / inflammation
[42] = systemic / pathology microscopic / oral mucosa / squamous cell carcinoma + systemic / clinical chemistry / alanine aminotransferase (alt/…
[43] = systemic / pathology microscopic / intestine small / adenoma + systemic / pathology microscopic / intestine small / carcinoma + systemic / …
[44] = systemic / pathology microscopic / intestine small / hyperplasia + systemic / pathology microscopic / lymph node / infiltration cellular + …

For O=CCCCC=O [Glutaraldehyde], which LEL [1] is on record?
The LEL was 14.6 mg/kg/day.

What about the LOAEL [1] of the same molecule?
Its LOAEL is 14.6 mg/kg/day.

And the NEL [1]?
The NEL was 9.8 mg/kg/day.

What about the NOAEL [1] of the same molecule?
Its NOAEL is 9.8 mg/kg/day.

And the LEL [2, 19]?
Its LEL is 71.1 mg/kg/day.

What about the LOAEL [2, 19] of the same molecule?
The LOAEL was 71.1 mg/kg/day.

And the NEL [2, 19]?
The NEL was 20.9 mg/kg/day.

What about the NOAEL [2, 19] of the same molecule?
Its NOAEL is 20.9 mg/kg/day.

What about the LEL [2, 20] of the same molecule?
The LEL was 19.5 mg/kg/day.

What about the LOAEL [2, 20] of the same molecule?
Its LOAEL is 19.5 mg/kg/day.

What about the NEL [2, 21] of the same molecule?
The NEL was 4.25 mg/kg/day.

What about the NOAEL [2, 21] of the same molecule?
The NOAEL was 4.25 mg/kg/day.

What about the LEL [3, 22] of the same molecule?
The LEL was 100 mg/kg/day.

And the LOAEL [3, 22]?
The LOAEL was over 100 mg/kg/day.

What about the NEL [3, 22] of the same molecule?
The NEL was 50 mg/kg/day.

What about the NOAEL [3, 22] of the same molecule?
Its NOAEL is at least 100 mg/kg/day.

And the LOAEL [3, 23]?
Its LOAEL is over 100 mg/kg/day.

And the NOAEL [3, 23]?
Its NOAEL is at least 100 mg/kg/day.

What about the LEL [3, 24] of the same molecule?
Its LEL is 25 mg/kg/day.

And the NEL [3, 24]?
Its NEL is under 25 mg/kg/day.

And the LEL [4]?
The LEL was 0.1 ppm.

And the LOAEL [4]?
The LOAEL was over 0.1 ppm.

And the NEL [4]?
Its NEL is under 0.1 ppm.

What about the NOAEL [4] of the same molecule?
Its NOAEL is at least 0.1 ppm.

And the LEL [5, 25]?
The LEL was 76 mg/kg/day.

What about the LOAEL [5, 25] of the same molecule?
The LOAEL was 76 mg/kg/day.

What about the NEL [5, 25] of the same molecule?
The NEL was 22.4 mg/kg/day.

What about the NOAEL [5, 25] of the same molecule?
Its NOAEL is 22.4 mg/kg/day.

What about the LOAEL [5, 26] of the same molecule?
Its LOAEL is 76 mg/kg/day.

What about the NOAEL [5, 26] of the same molecule?
The NOAEL was 22.4 mg/kg/day.

What about the LEL [5, 27] of the same molecule?
Its LEL is 22.4 mg/kg/day.

What about the NEL [5, 27] of the same molecule?
The NEL was 4.7 mg/kg/day.

And the LEL [6, 22]?
The LEL was 45 mg/kg/day.

And the LOAEL [6, 22]?
The LOAEL was 45 mg/kg/day.

What about the NEL [6, 22] of the same molecule?
The NEL was 15 mg/kg/day.

What about the NOAEL [6, 22] of the same molecule?
The NOAEL was 15 mg/kg/day.

What about the LEL [6, 28] of the same molecule?
Its LEL is 45 mg/kg/day.

And the LOAEL [6, 28]?
Its LOAEL is 45 mg/kg/day.

And the NEL [6, 28]?
The NEL was 15 mg/kg/day.

And the NOAEL [6, 28]?
The NOAEL was 15 mg/kg/day.

What about the LEL [7, 29] of the same molecule?
Its LEL is 4 mg/kg/day.

And the NEL [7, 29]?
The NEL was under 4 mg/kg/day.

What about the LOAEL [7, 30] of the same molecule?
The LOAEL was over 64 mg/kg/day.

What about the NOAEL [7, 30] of the same molecule?
Its NOAEL is at least 64 mg/kg/day.

What about the LEL ([8]; systemic / hematology / neutrophils / neutrophils) of the same molecule?
The LEL was 0.125 ppm.

What about the NEL ([8]; systemic / hematology / neutrophils / neutrophils + systemic / clinical chemistry / alanine aminotransferase (alt/sgpt) / alanine …) of the same molecule?
The NEL was 0.0625 ppm.

And the LOAEL [8, 31]?
Its LOAEL is 0.25 ppm.

And the NOAEL [8, 31]?
Its NOAEL is 0.125 ppm.

And the LEL [9, 32]?
Its LEL is 5.3 mg/kg/day.

What about the NEL [9, 32] of the same molecule?
Its NEL is under 5.3 mg/kg/day.

What about the LOAEL ([9]; systemic / pathology microscopic / larynx / metaplasia) of the same molecule?
The LOAEL was 61 mg/kg/day.

What about the NOAEL ([9]; systemic / pathology microscopic / larynx / metaplasia + systemic / in life observation / body weight / body weight + systemic / in life …) of the same molecule?
The NOAEL was 16.1 mg/kg/day.

What about the LOAEL [10, 33] of the same molecule?
Its LOAEL is 58.9 mg/kg/day.

What about the NOAEL [10, 33] of the same molecule?
Its NOAEL is 15.4 mg/kg/day.

What about the LEL ([10]; systemic / pathology gross / pituitary gland / enlarged) of the same molecule?
Its LEL is 23.2 mg/kg/day.

And the NEL ([10]; systemic / pathology gross / pituitary gland / enlarged + systemic / in life observation / clinical signs / abnormal respiratory sounds + …)?
The NEL was 4.8 mg/kg/day.

What about the LEL [11] of the same molecule?
Its LEL is 50 mg/kg/day.

And the LOAEL [11]?
Its LOAEL is 50 mg/kg/day.

What about the NEL [11] of the same molecule?
Its NEL is under 50 mg/kg/day.

What about the NOAEL [11] of the same molecule?
Its NOAEL is under 50 mg/kg/day.

What about the LEL [12] of the same molecule?
Its LEL is 200 mg/kg/day.

What about the LOAEL [12] of the same molecule?
Its LOAEL is 200 mg/kg/day.

And the NEL [12]?
The NEL was 60.8 mg/kg/day.

What about the NOAEL [12] of the same molecule?
Its NOAEL is 60.8 mg/kg/day.

What about the LEL [13, 34] of the same molecule?
The LEL was 1 ppm.

And the LOAEL [13, 34]?
Its LOAEL is over 1 ppm.

What about the NEL [13, 34] of the same molecule?
The NEL was 0.5 ppm.

And the NOAEL [13, 34]?
Its NOAEL is at least 1 ppm.

What about the LEL [13, 35] of the same molecule?
The LEL was 0.5 ppm.

And the LOAEL [13, 35]?
Its LOAEL is over 1 ppm.

What about the NEL [13, 35] of the same molecule?
The NEL was 0.25 ppm.

What about the NOAEL [13, 35] of the same molecule?
The NOAEL was at least 1 ppm.

What about the LOAEL [13, 36] of the same molecule?
Its LOAEL is 0.0625 ppm.

What about the NOAEL [13, 36] of the same molecule?
The NOAEL was under 0.0625 ppm.

And the LEL [13, 37]?
Its LEL is 0.0625 ppm.

What about the NEL [13, 37] of the same molecule?
Its NEL is under 0.0625 ppm.

And the LEL [14, 38]?
The LEL was 98.4 mg/kg/day.

What about the LOAEL [14, 38] of the same molecule?
Its LOAEL is 98.4 mg/kg/day.

What about the NEL [14, 38] of the same molecule?
The NEL was 28.3 mg/kg/day.

And the NOAEL [14, 38]?
Its NOAEL is 28.3 mg/kg/day.

What about the LEL [14, 27] of the same molecule?
The LEL was 19.5 mg/kg/day.

What about the LOAEL [14, 27] of the same molecule?
The LOAEL was over 69.1 mg/kg/day.

What about the NEL [14, 27] of the same molecule?
Its NEL is 4.25 mg/kg/day.

And the NOAEL [14, 27]?
Its NOAEL is at least 69.1 mg/kg/day.

What does the source list for O.O.[Na+].[Na+].[O]=[Cr](=[O])([O-])[O][Cr](=[O])(=[O])[O-] [Sodium dichromate(VI) dihydrate]?
LEL [15]: 5 mg/kg/day; LOAEL [15]: > 60 mg/kg/day; NEL [15]: < 5 mg/kg/day; NOAEL [15]: ≥ 60 mg/kg/day; LOAEL [16, 39]: > 80 mg/kg/day; NOAEL [16, 39]: ≥ 80 mg/kg/day; LEL [16, 40]: 9 mg/kg/day; NEL [16, 40]: < 9 mg/kg/day; LEL [17, 41]: 0.7 mg/kg/day; NEL [17, 41]: < 0.7 mg/kg/day; LOAEL [17, 42]: > 17 mg/kg/day; NOAEL [17, 42]: ≥ 17 mg/kg/day; LOAEL [18, 43]: > 17 mg/kg/day; NOAEL [18, 43]: ≥ 17 mg/kg/day; LEL [18, 44]: 1.1 mg/kg/day; NEL [18, 44]: < 1.1 mg/kg/day
